Assay results published in US20240066037A1 (priority 2020, published 2024).
Where two headings read alike, the source gives them in different places.

Columns and labels:
[1] = system: SARS-CoV-2 (USA_WA1/2020); test: microbe, parasite or virus in culture; type: cell-based; conditions: for IC50: Severe acute respiratory syndrome coronavirus 2, Vero C1008, 72 h, read-out: Antiviral IC50
in vitro [2] = conditions: African green monkey
SARS-CoV-1 (Toronto 2) = test: microbe, parasite or virus in culture; type: cell-based; conditions: for IC50: Severe acute respiratory syndrome coronavirus, Vero C1008, 72 h, read-out: Antiviral IC50
MERS (EMC/2012) = test: microbe, parasite or virus in culture; type: cell-based; conditions: for IC50: Middle East respiratory syndrome-related coronavirus
[3] = system: SARS-CoV-2 (βCoV/KOR/KCDC03/2020); test: microbe, parasite or virus in culture; type: cell-based; conditions: for IC50: Severe acute respiratory syndrome coronavirus 2, Calu-3, 24 h
SARS-CoV-2 = type: cell-based
HTNV = test: organism not typed; type: cell-based; conditions: Vero
Cat K [4] = biological target: Cat K (Macaca fascicularis, UniProt P61276); conditions: cited from earlier work
Cat K (Macaca fascicularis, UniProt P61276), sequence (P61276 115-329): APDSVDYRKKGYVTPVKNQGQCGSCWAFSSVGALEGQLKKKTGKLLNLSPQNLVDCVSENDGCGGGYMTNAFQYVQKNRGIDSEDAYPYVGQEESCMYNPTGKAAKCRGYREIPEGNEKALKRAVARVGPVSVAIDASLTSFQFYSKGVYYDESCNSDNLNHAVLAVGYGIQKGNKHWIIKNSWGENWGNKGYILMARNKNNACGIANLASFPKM

Cat V (L2) [5] = biological target: Cat V (L2) (Homo sapiens, UniProt O60911); conditions: cited from earlier work
Cat V (L2) (Homo sapiens, UniProt O60911), sequence (O60911 114-334): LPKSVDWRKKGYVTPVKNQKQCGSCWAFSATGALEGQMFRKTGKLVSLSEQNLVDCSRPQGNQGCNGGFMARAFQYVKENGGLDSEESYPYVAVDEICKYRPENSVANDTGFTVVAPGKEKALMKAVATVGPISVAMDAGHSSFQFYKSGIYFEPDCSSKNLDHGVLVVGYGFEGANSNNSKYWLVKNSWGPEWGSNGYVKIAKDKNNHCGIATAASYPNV

LASV = test: organism not typed; type: cell-based; conditions: HeLa
MARV = test: organism not typed; type: cell-based; conditions: HeLa
EBOV (Kikwit) = test: microbe, parasite or virus in culture; type: cell-based; conditions: Zaire ebolavirus, Vero
Cat G = Cat G (Homo sapiens, UniProt P08311); conditions: cited from earlier work
Cat G, sequence (P08311 21-244): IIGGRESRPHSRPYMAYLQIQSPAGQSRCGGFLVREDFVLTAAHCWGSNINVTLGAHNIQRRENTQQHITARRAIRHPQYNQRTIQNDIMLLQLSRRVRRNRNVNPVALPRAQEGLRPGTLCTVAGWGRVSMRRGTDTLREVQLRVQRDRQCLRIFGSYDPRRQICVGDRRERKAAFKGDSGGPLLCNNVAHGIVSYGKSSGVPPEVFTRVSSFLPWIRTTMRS

Caspase 3-4 = conditions: cited from earlier work
EBOV = conditions: rhesus monkey, in vivo
WNV = test: microbe, parasite or virus in culture; type: cell-based; conditions: West Nile virus, HeLa
EBOV (Makona) [6] = test: microbe, parasite or virus in culture; type: cell-based; conditions: Zaire ebolavirus, Vero
Calpain = conditions: cited from earlier work
Cat V (L2) [7] = conditions: cited from earlier work
Cat K [8] = biological target: Cat K (Mus musculus, UniProt P55097); conditions: cited from earlier work
Cat K (Mus musculus, UniProt P55097), sequence (P55097 115-329): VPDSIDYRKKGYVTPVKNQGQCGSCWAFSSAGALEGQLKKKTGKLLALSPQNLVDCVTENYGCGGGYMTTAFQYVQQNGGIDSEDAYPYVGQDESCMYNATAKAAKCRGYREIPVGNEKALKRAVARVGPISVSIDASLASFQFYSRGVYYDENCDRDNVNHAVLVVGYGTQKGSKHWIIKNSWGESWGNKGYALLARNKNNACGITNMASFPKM

Cat L [9] = biological target: Cat L (Mus musculus, UniProt P06797); conditions: cited from earlier work
Cat L (Mus musculus, UniProt P06797), sequence (P06797 114-334): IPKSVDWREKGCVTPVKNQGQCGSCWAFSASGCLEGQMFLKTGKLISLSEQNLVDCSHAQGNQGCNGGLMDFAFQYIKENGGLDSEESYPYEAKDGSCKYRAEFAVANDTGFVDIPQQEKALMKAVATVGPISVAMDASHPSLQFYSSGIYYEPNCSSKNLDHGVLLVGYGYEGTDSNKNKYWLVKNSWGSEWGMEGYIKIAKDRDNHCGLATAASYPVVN

Cat L [10] = biological target: Cat L (Rattus norvegicus, UniProt P07154); conditions: cited from earlier work
Cat L (Rattus norvegicus, UniProt P07154), sequence (P07154 114-334): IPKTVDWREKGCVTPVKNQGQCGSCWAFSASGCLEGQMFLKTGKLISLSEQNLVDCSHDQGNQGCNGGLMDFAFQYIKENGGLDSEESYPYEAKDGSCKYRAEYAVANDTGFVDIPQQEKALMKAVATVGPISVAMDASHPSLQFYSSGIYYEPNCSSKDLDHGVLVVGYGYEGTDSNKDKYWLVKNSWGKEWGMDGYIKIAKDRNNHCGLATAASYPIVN

Cat D = Cat D (Homo sapiens, UniProt P07339); conditions: cited from earlier work
Cat D, sequence (P07339 65-412): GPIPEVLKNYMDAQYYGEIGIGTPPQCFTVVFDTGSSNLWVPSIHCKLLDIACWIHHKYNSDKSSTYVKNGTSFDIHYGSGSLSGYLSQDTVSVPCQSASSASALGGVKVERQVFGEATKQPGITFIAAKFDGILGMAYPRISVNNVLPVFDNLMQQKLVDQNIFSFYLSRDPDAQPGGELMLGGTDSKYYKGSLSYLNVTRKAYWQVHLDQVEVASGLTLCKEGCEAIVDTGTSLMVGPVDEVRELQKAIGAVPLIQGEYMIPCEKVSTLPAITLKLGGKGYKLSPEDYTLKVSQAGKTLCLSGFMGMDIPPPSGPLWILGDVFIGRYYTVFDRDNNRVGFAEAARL

EBOV (Makona) [11] = test: microbe, parasite or virus in culture; type: cell-based; conditions: Zaire ebolavirus, HeLa
MERS-CoV = test: microbe, parasite or virus in culture; type: cell-based; conditions: Middle East respiratory syndrome-related coronavirus, MRC5
Cat L [12] = conditions: cited from earlier work
Cat S = Cat S (Rattus norvegicus, UniProt Q02765); conditions: cited from earlier work
Cat S, sequence (Q02765 113-330): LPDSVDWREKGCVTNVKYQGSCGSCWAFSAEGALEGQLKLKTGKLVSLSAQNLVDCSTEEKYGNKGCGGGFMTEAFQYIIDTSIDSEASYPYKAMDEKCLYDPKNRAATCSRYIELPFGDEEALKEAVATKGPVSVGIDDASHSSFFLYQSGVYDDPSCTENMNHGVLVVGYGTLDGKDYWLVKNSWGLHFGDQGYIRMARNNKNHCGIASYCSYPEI

in vitro [13] = conditions: Syrian hamster
NiV = test: organism not typed; type: cell-based; conditions: HeLa
[14] = Vero C1008, read-out: Antiviral IC50 (std-incubation)
[15] = Vero C1008, read-out: pre-incubation IC50

In the case of CCN(CC)CCCC(C)Nc1ccnc2cc(Cl)ccc12 (centres unmarked) [Chloroquine], the IC50 [1] is reported as 3710 nM, the CC50 (in vitro [2]) is reported as over 30000 nM and the IC50 (SARS-CoV-1 (Toronto 2)) is reported as 2020 nM. The IC50 (MERS (EMC/2012); [14]) was 21000 nM.
For CCC(CC)COC(=O)[C@H](C)N[P@](=O)(OC[C@H]1O[C@@](C#N)(c2ccc3c(N)ncnn23)[C@H](O)[C@@H]1O)Oc1ccccc1 [Remdesivir], the IC50 ([3]; read-out: Exp. 1 IC50) was 1940 nM, the IC50 ([3]; read-out: Exp. 2 IC50) was 2150 nM and the “Selectivity Index CC50/IC50” value [1] was over 7.2. For the same compound, the IC50 [1] was 4150 nM, the CC50 (in vitro [2]) was over 30000 nM and the “Selectivity Index CC50/IC50” value (SARS-CoV-1 (Toronto 2)) was over 4.0. For the same compound, the IC50 (SARS-CoV-1 (Toronto 2)) was 7420 nM, the “Selectivity Index CC50/IC50” value (MERS (EMC/2012)) was over 2.4 and the IC50 (MERS (EMC/2012); [14]) was 12500 nM.
For CN(C)C(=O)COC(=O)Cc1ccc(OC(=O)c2ccc(NC(=N)N)cc2)cc1 [camostat], the “SARS-CoV-2 activity in Calu-3 cells, expression of N protein” value [3] was “reduced the expression of N protein”, the IC50 ([3]; read-out: Exp. 1 IC50) was 160 nM and the IC50 ([3]; read-out: Exp. 2 IC50) was 290 nM. For the same compound, the “Selectivity Index CC50/IC50” value [1] was over 1, the “antiviral activity” value [1] was “no antiviral activity” and the IC50 [1] was over 50000 nM. For the same compound, the CC50 (in vitro [2]) was over 50000 nM, the “Selectivity Index CC50/IC50” value (SARS-CoV-1 (Toronto 2)) was over 1 and the “antiviral activity” value (SARS-CoV-1 (Toronto 2)) was “no antiviral activity”. For the same compound, the IC50 (SARS-CoV-1 (Toronto 2)) was over 50000 nM, the “Selectivity Index CC50/IC50” value (MERS (EMC/2012)) was over 1 and the “antiviral activity” value (MERS (EMC/2012)) was “no antiviral activity”. For the same compound, the IC50 (MERS (EMC/2012); [14]) was over 50000 nM, the IC50 (MERS (EMC/2012); [15]) was over 50000 nM and the “SARS-CoV-2 antiviral activity, titer by plaque assay (FIG. 8A, words)” value (SARS-CoV-2) was “dose-dependent SARS-CoV-2 antiviral activity”.
In the case of CC(C)C[C@H](NC(=O)c1cc2ccccc2o1)C(=O)N[C@H]1CC[C@@H](C)N(S(=O)(=O)c2ccccn2)CC1=O [relacatib, N-((2S)-4-methyl-1-(((4S,7R)-7-methyl-3-oxo-1-(pyridin-2-ylsulfonyl)azepan-4-yl)amino)-1-oxopentan-2-yl)benzofuran-2-carboxamide], the EC50 (HTNV) is listed as over 100000 nM, the Ki (Cat K [4]) is listed as 0.04 nM and the Ki (Cat V (L2) [5]) is listed as 0.05 nM. The Ki (Cat V (L2) [5]; read-out: Ki, app) was 0.053 nM, the EC50 (LASV) was over 100000 nM and the EC50 (MARV) was 250 nM. For the same compound, the EC50 (EBOV (Kikwit)) was 2890 nM, the Ki (Cat G) was over 30000 nM and the Ki (Caspase 3-4) was over 10000 nM. For the same compound, the “GI pathology in colon (FIG. 5C, words)” value (EBOV) was “enhanced GI pathology noted in colon”, the “Kaplan-Meier survival, P treatment versus vehicle control (Log-rank Mantel-Cox test)” value (EBOV; po) was 0.0565 and the EC50 (WNV) was over 100000 nM. The “SARS-CoV-2 activity in Calu-3 cells, expression of N protein” value [3] was “no measurable SARS-CoV-2 activity”, the IC50 ([3]; read-out: Exp. 1 IC50) was over 50000 nM and the IC50 ([3]; read-out: Exp. 2 IC50) was over 50000 nM. For the same compound, the IC50 [1] was 20 nM, the EC90 (EBOV (Makona) [6]) was 9710 nM and the Ki (Calpain) was 310 nM. The Ki (Cat V (L2) [7]) was 0.7 nM, the Ki (Cat K [8]) was 15 nM and the Ki (Cat L [9]) was 0.2 nM. The CC50 (in vitro [2]) was over 50000 nM, the Ki (Cat L [10]) was 0.2 nM and the IC50 (SARS-CoV-1 (Toronto 2)) was 230 nM. The Ki (Cat D) was over 10000 nM, the EC50 (EBOV (Makona) [11]) was 360 nM and the IC50 (MERS (EMC/2012); [14]) was 600 nM. For the same compound, the IC50 (MERS (EMC/2012); [15]) was 680 nM, the “SARS-CoV-2 antiviral activity, titer by plaque assay (FIG. 8A, words)” value (SARS-CoV-2) was “essentially no activity” and the EC50 (MERS-CoV) was 40 nM. The Ki (Cat L [12]) was 0.3 nM, the Ki (Cat S) was 5.5 nM and the CC50 (in vitro [13]) was over 20000 nM. It also gave an EC50 (NiV) of 15 nM.
